Experimental data taken from ChEMBL document CHEMBL3871296, “Phytochemical and cytotoxic studies on the roots of Euphorbia fischeriana” (Bioorg Med Chem Lett, 2017).

Tests used:
[1] = Cytotoxicity against human Hep3B cells assessed as cell growth inhibition by MTT assay; format: functional, cell-based, Hep 3B2
[2] = Cytotoxicity against human A549 cells assessed as cell growth inhibition by MTT assay; format: functional, cell-based

| SMILES | IC50 [1] [µM] | IC50 [2] [µM] |
| --- | --- | --- |
| CC1(C)OC[C@@]2(C[C@@]34CC[C@H]5C(C)(C)C(=O)CC[C@]5(C)[C@H]3CC[C@H]2C4)O1 | 8.15 | > 100 |
| CC1(C)[C@H](O)CC[C@]2(C)[C@@H]1CC[C@@]13CC[C@@H](C[C@@H]12)[C@](O)(CO)C3 | > 100 | > 100 |
| CC1(C)CC[C@]2(C)CC[C@]3(C)C(=CC=C4[C@@]5(C)C[C@@H](O)[C@H](O)C(C)(C)[C@@H]5CC[C@]43C)[C@@H]2C1 | 12.5 | 11.9 |
| CCCCCCCCCCCCCCCC(=O)O[C@@]12C[C@@H](C)[C@@]3(O)[C@@H](C=C(C=O)C[C@]4(O)C(=O)C(C)=C[C@@H]34)[C@@H]1C2(C)C | 12 | 9.38 |
| OCC(O)C(O)C(O)c1cncc(-c2ccco2)n1 (stereo not drawn) | > 100 | > 100 |
| C=C1C[C@@]23CC[C@@H]4C(C)(C)[C@H](O)CC[C@@]4(C)[C@H]2C[C@@H]1CC3=O | > 100 | > 100 |
| CC1(C)C(=O)CC[C@]2(C)[C@@H]1CC[C@]13C[C@H](CO)[C@@H](CC[C@H]12)C3 | > 100 | > 100 |
| O=c1[nH]cc(F)c(=O)[nH]1 [FLUOROURACIL] | 9.36 | 16.6 |
| C=C(C)[C@@H]1CC[C@]2(C)CC[C@]3(C)[C@H](CC[C@@H]4[C@@]5(C)CC[C@H](OC(C)=O)C(C)(C)[C@@H]5CC[C@]43C)[C@@H]12 [LUPENYL ACETATE] | 18.7 | 29.8 |
